The subject of one series is VSV pseudotyped HIV-1. It is filed as cell-based.
In another series the test system is HIV-1 gp160 (HXB2). Put plainly: Cell-cell fusion assay (HeLa cells expressing HIV-1 gp160 with TMZ target cells, luciferase). To be noted: pretreated target cells, alone or combined; FIG. 8B.
For the next series, the system named is cells. Put plainly: Apoptotic effects on the cells by annexin 5 staining / toxicity. It is filed as cell-based. To be noted: at the low concentrations that inhibit HIV-1.
For another series, the system named is CD4. Nature of the series: Flow cytometry of cell surface CD4 on TMZ cells. It is filed as cell-based. On the procedure:
(§1) TMZ cells, harvested with trypsin-EDTA in PBS, were centrifuged at 450×g and resuspended at 10^6 cells/ml in PBS-5% FBS-5% normal mouse serum. After incubation for 15 min at room temperature, the cells were washed twice in PBS-0.1% bovine serum albumin and resuspended in 100 μl of PBS-5% FBS-5% normal mouse serum. 20 μl of Phycoerythrin (PE)-conjugated mouse immunoglobulin G (IgG) anti-CD4, PE-conjugated mouse IgG anti-CXCR4, or PE-conjugated mouse IgG anti-CCR5, from Becton Dickenson (San Jose, Calif.) was then added to each sample. Cells were incubated at 4° C. for 1 hour and washed twice in PBS-0.1% BSA. Samples were fixed in PBS-1% paraformaldehyde and resuspended in 1 ml of PBS to be read by a FACScalibur instrument (Becton Dickinson, San Jose, Calif.) at 10,000 events/sample with respect to unlabeled cells.
(§2) Increasing ceramide concentrations is thought to perturb membrane properties due to the hydrophobic nature of this lipid and the tendency to self aggregate. The possible consequences of membrane altering properties on the cell surface expression of the main HIV receptors, CD4, X4 and R5, was investigated. […] CD4 expression decreases in a dose dependent manner from a control level of 100% to levels of 70%, 57% and 27% following treatment with 2, 5 and 10 μM of a 4-HPR compound respectively.
Background: In flow cytometry, cells or beads pass a laser one at a time.

In a further series the test system is Sendai virus. Put plainly: R18 fluorescence dequenching viral fusion assay. To be noted: increasing concentrations, 37° C., pH7; FIG. 9.
Series [1] concerns ceramide. Nature of the series: Ceramide quantitation by [3H]sphingosine incorporation in HeLa-derived target cells. It is filed as cell-based.
The test system of series [2] is ceramide. Put plainly: Ceramide level in monocyte derived macrophages. To be noted: 5 uM.
The test system of series [3] is HIV-1. It is filed as cell-based.
A further series has as its system CCR5. Nature of the series: Flow cytometry of cell surface CCR5 on TMZ cells. It is filed as cell-based. On the procedure:
as §1, §2

For the next series, the system named is CXCR4. Nature of the series: Flow cytometry of cell surface CXCR4 on TMZ cells. It is filed as cell-based. To be noted: 2 μM. Here is the method: as §1, §2
The subject of series [4] is HIV-1. Nature of the series: HIV-1 infection of primary monocyte derived macrophages. The class given is cell-based. To be noted: low uM concentrations, pretreated 2 days.

Experimental for HIV-1 gp160 (HXB2): Target TMZ cells were plated at 0.75×10^4 cells per well in a 96 well plate and treated with a 4-BPR compound for 48 hours with 5% CO2 in a humidified incubator. HeLa cells expressing HUV-1 gp160 (HXB2) in addition to gag, tat, rev and nef were then cocultured with target cells containing the tat inducible luciferase reporter cassette. Envelope and target cells were cocultivated at 37° C. for 7 hours. Luciferase activity was then measured using a Promega (Madison, Wis.) luciferase assay system kit. Briefly, the supernatants were removed and the cells were lysed with Steady Glo luciferase assay system. The light intensity of each well was measured on a Reporter luminometer. Mock-infected cells were used to determine background luminescence. All infectivity assays were performed in duplicate.
Briefly, HeLa cells expressing HIV-1 gp160 (HXB2) in addition to gag, tat, rev and nef were cocultured with CD4 positive target cells containing the tat inducible luciferase reporter cassette. […] Envelope and target cells were cocultivated at 37° C. for 7 hours following which the cells were lysed and luciferase activity quantitated.
Experimental for Sendai virus: To further probe how ceramide accumulation might inhibit viral fusion, viral fusion was monitored using a well-established octadecyl rhodamine (R18) fluorescence dequenching (R18-fdq) assay. In this assay system R18-labeled Sendai virus was incubated with control or a 4-HPR compound treated cells for 30 min at 4° C. to allow for virus binding. Small aliquots of virus-cell complexes were added to a stirred cuvette at 37° C. containing 2 ml buffer at pH7. Fluorescence increases were recorded with a 1 sec time resolution in a SLM8000 spectrofluorimeter (SLMInstruments, Urbana, Ill.). […] This increase in fluorescence reflects dequenching of R18 upon the merging of viral and cell membranes.

`CC1=C(/C=C/C(C)=C/C=C/C(C)=C/C(=O)Nc2ccc(O)cc2)C(C)(C)CCC1` [4-HPR compound, N-(4-hydroxyphenyl)retinamide]: in the series with VSV pseudotyped HIV-1, the “infectivity of VSV pseudotyped HIV-1” value is “not impaired”. For the same compound, the inhibition of fusion in the series on HIV-1 gp160 (HXB2) is 20%. For the same compound, the toxicity entry with cells was “minimal toxicity”. Also, the “CD4 expression (control level 100%)” value is 70% in the series on CD4 (2 μM), 57% in the series on CD4 (5 μM) and 27% in the series on CD4 (10 μM). Besides, the “inhibition of Sendai virus fusion (R18 fluorescence dequenching)” value in the series on Sendai virus is “dose dependent inhibition”. For the same compound, the increase in ceramide with ceramide [1] (HeLa cells, 5 uM) is 1.7 fold; with ceramide [2], 1.12 fold. The “inhibition of HIV-1 isolates” value with HIV-1 [3] (X4 (NL4-3, MN), R5 (Bal, JRCSF) and primary isolates, FIG. 3b) is given as “dose-dependent inhibition”. The CCR5 expression in the series on CCR5 (2 μM) was 60%; in the series with CCR5 (5 μM), 30%; in the series on CCR5 (10 μM), 7%. Besides, the CXCR4 expression in the series on CXCR4 was 18%. Also, in the series with HIV-1 [4] (FIG. 6A), the “HIV-1 infection of macrophages, CCR5 tropic isolate (BaL)” value is “Infection inhibition was observed”. For the same compound, the “HIV-1 infection of macrophages, primary isolate” value with HIV-1 [4] (FIG. 6B) is recorded as “Infection inhibition was observed”.

Take `CCCCCCCCCCCCC/C=C/[C@@H](O)[C@H](CO)NC(=O)CCCCCCCCCCCCCCC` [C16, C16 ceramide]: in the series on HIV-1 [3] (pretreatment with 1 μM lipid for 10 minutes at 37° C., FIG. 5), the “inhibition of HIV infection” value is “approximately 60%”.

Consider `CCCCCCCCCCCCCCCC(=O)NC(CN1CCOCC1)C(O)c1ccccc1` (centres unmarked) [PPMP, 1-phenyl-2-hexadecanoylamino-3-morpholino-1-propanol], for which, in the series with HIV-1 gp160 (HXB2), the inhibition of fusion entry was “ineffective”.

Consider sphingomyelinase, for which the “ceramide levels following enzymatic activity” value with ceramide [1] (sphingomyelinase pretreated cells) is recorded as “increased”. In addition, the “inhibition of HIV-1 infection” value with HIV-1 [3] is recorded as 60-70%.

Values taken from patent US20070258970A1, “Methods for Inhibiting Hiv and Other Viral Infections by Modulating Ceramide Metabolism” (priority 2003, published 2007).
